Measurements as given in article PMC6458995, “MAP4K4 Inhibition Promotes Survival of Human Stem Cell-Derived Cardiomyocytes and Reduces Infarct Size In Vivo” (Cell Stem Cell, 2019).
Blank lines part the entries; values can stand above or below the compound they belong to.

Key:
recombinant human MAP4K4 = target: T1, recombinant human MAP4K4 (Homo sapiens, UniProt O95819); assay: In vitro MAP4K4 kinase activity assay (HTRF Transcreener ADP); assay type: biochemical; conditions: MAP4K4; HTRF Transcreener ADP assay; read-out: pIC50 (converted)
T1 construct: Human MAP4K4 kinase domain (aa 1-328); purchased Invitrogen PV3687
Description: MAP4K4 kinase activity was monitored using the CisBio HTRF Transcreener ADP assay, a competitive immunoassay with a reproducible Z’ > 0.6. In the detection step, endogenous ADP and d2-labeled ADP compete for binding an anti-ADP monoclonal antibody labeled with Eu^3+ cryptate. […] Assays were run in Greiner low volume plates with a final reaction volume of 10 μl. Percent inhibition was calculated from 100% activity of MAP4K4 (DMSO only) and 0% activity (no enzyme added). Data were either reported as % inhibition at a single dose or as pIC50 values derived from dose response curves (pIC50 = -log[IC50]).

vCor.4U hiPSC-CMs = assay: Calcium transients (FLIPR Tetra, EarlyTox Cardiotoxicity dye); assay type: cell-based, human; conditions: Homo sapiens; calcium cycling; vCor.4U; 24 h; read-out: half-maximal loss of peak area and peak height
Description: Calcium transients in hiPSC-CMs were assessed using FLIPR Tetra instrumentation and Early Tox Cardiotoxicity kits (Molecular Devices). vCor.4U cells were subjected to graded concentrations of menadione and the MAP4K4 inhibitors as described for the viability assays. Compound concentrations and time course are denoted in the figure and figure legend. Vehicle controls were used throughout. Cells were incubated for 2-3 hr at 37°C in 5% CO2, using 3 μL well^-1 of EarlyTox Cardiotoxicity Kit concentrate as the fluorescent calcium indicator dye. Plates were then removed from the incubator and allowed to reach room temperature. Intracellular calcium oscillations were monitored using a FLIPR Tetra system with excitation LED bank 470-495 nm and emission filter set 515-575 nm (Molecular Devices). Fluorescence intensity signals were acquired for 600 reads at 1.2 ms intervals. Beat frequency, median peak height, median peak width and total peak area were calculated and compared with the baseline control and with menadione alone. Protection of calcium cycling by DMX-4804 was confirmed in 3 independent experiments with overlapping conditions, and results are shown for a full dose-response study, analyzing 4 wells for each point.

vCor.4U cells = assay: Mitochondrial function (Seahorse XFe24, OCR and ECAR); assay type: cell-based, human; conditions: menadione 15 μM; 2 h
Description: Mitochondrial function in hiPSC-CMs was determined using a Seahorse XFe24 Analyzer. vCor.4U cells (60,000 well^-1) were transferred to 0.1% gelatin-coated XF24 plates and maintained for 5 d, as described above. On day 6, DMX-5804 was added 45 min prior to challenge with menadione for 2 h. The medium was replaced 1 hr before the assay, using bicarbonate-free Seahorse assay medium (8.3 g L^-1 DMEM Base (Sigma-Aldrich), 10 mM glucose, 2 mM L-alanyl-L-glutamine dipeptide (Glutamax-1, GIBCO), 1 mM sodium pyruvate (GIBCO), pH 7.4). Cells were maintained at 37°C without supplemental CO2 starting 1 hr before the assay (IL10 incubator, VWR). For each state measured, three assay cycles were performed (4 min mixing, 2 min wait, and 2 min measurement periods, with readings every 15 s). The basal oxygen consumption rate (OCR) and extracellular acidification rate (ECAR) were determined, followed by sequential injection of 1 μM oligomycin A (Abcam) to inhibit ATP synthase, 0.5 μM […] (FCCP; Abcam) to uncouple oxidative phosphorylation, and 1 μM antimycin A/rotenone (Sigma, Abcam) to inhibit mitochondrial complex III and I. For each condition, 12 wells were tested, comprising 4 independent experiments.

vCor.4U cardiomyocytes = assay: CellTiter-Glo viability after oxidative stress (H2O2 or menadione); assay type: cell-based, human; conditions: vCor.4U; 400 μM H2O2 1 h after compound; 10 μM
Description: vCor.4U cardiomyocytes were cultured, except where noted, on white (viability) or black (FLIPR) clear-bottom 384-well plates, treated for 1 hr with […] fibronectin (Sigma-Aldrich). To minimize batch to batch variation, thawed cells first were transferred from cryo-vials into sterile 250 mL flasks containing pre-warmed vCor.4U maintenance medium, for 3-5 d. The cells were then plated at 1000 well^-1 for viability assays or 5000 cells well^-1 for FLIPR experiments, all in 40 μl well^-1 of the maintenance medium. Cells were cultured in Axiogenesis complete medium followed by incomplete medium, were subjected to oxidative stress ± test compounds on day 3, and were assayed on day 4 (Figures 4D and 4E). Alternatively, complete medium was replaced on day 2 of culture with 40 μl of DMEM high Glucose (no FCS or pyruvate), followed by removal and replacement of 20 μl every 2 d for 10 d (Figures 4A–4C).
H2O2, menadione (Sigma-Aldrich), doxorubicin (Calbiochem), and C2-ceramide (N-acetyl-D-sphingosine) were used at the indicated concentrations. MAP4K4 inhibitors were serially diluted in DMSO, transferred to an intermediate plate using assay medium as a diluting agent, and added at a final concentration of 0.1% DMSO. MAP4K4 inhibitors were added to cultured cardiomyocytes 1 hr before the cell death inducers, except where noted, and remained present for the duration of the experiment.
For cell-based dose-response experiments, MAP4K4 inhibitors were prepared in 96-well polypropylene plates as serial dilutions in DMSO of 10 mM stock solutions. To a sterile 96-well intermediate plate, 1 μl of each well was added to 99 μl of medium, the samples were mixed, and 5 μl well^-1 from the intermediate plate were transferred to the cultured cells (final concentration, 0.1% DMSO; final top concentration of inhibitor, 10 μM). Assay plates were gently centrifuged then incubated for 1 hr at 37°C. The death triggers menadione, H2O2 and doxorubicin were prepared fresh on the day of treatment at 10x the final concentrations and 5 μl well^-1 were added as appropriate. Assay plates were gently centrifuged and then incubated at 37°C for the duration of treatment.
Assay plates were removed from the incubator, allowed to reach room temperature, inoculated with 20 μl well^-1 CTG reagent (Promega), and gently agitated for 30 min. Prior to adding CTG, 2 μl well^-1 of the culture medium was removed and placed into a white 384-well low volume plate for measurement of cardiac troponin release by AlphaLISA (below). Luminescence due to ATP, proportional to cell number, was captured on a PHERAstar Plus microplate reader (BMG Labtech). Normalized values were plotted against the log concentration of death signal or inhibitor, and a 4-parameter fit was used to identify IC50 and EC50, respectively.

T1 sequence (O95819 1-328): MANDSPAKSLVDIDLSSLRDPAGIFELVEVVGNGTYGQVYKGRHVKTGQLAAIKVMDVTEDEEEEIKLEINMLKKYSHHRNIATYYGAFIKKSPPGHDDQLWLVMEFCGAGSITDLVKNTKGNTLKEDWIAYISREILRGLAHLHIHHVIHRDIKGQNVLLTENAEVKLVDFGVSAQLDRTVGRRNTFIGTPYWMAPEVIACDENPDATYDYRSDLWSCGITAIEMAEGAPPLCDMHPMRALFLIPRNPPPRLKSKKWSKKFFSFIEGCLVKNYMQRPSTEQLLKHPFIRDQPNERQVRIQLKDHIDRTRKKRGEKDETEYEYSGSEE

- IC50 (recombinant human MAP4K4): 7.94 µM
Structure (SMILES): O=c1[nH]cnc2c1ccn2-c1ccccc1 [DMX-4815]

- IC50 (recombinant human MAP4K4): 0.794 µM
Structure (SMILES): O=c1[nH]cnc2[nH]cc(-c3ccccc3)c12 [DMX-4850]

Structure (SMILES): CC1=CC(=O)c2ccccc2C1=O [menadione]
- IC50 (vCor.4U hiPSC-CMs): 16 µM
- Maximum oxidative capacity, of control levels (vCor.4U cells): 15%

Structure (SMILES): COCCc1ccc(OCC(O)CNC(C)C)cc1 (centres unmarked) [metoprolol]
- human cardiomyocyte survival (rescue of viability) (vCor.4U cardiomyocytes): promoted
